Like-named read-outs stand apart in the source and are kept apart here.
Assays:
PI3K delta (PI3 Kd) = target: T1, PI3K delta (PI3 Kd) (Homo sapiens, UniProt O00329); assay: kinobeads assay, PI3K delta; type: binding
T1 construct: endogenous in cells; host or cells: Jurkat, clone E6-1 (ATCC TIB-152) cell lysate
Method in brief: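 IC50 values came from dose-response curves after test compound (1:3 series) competed with an immobilized phenylmorpholin-chromen affinity matrix for kinases in Jurkat lysate at 5 mg/mL protein. Eluted captured DNA-PK and PI3Kδ were measured by specific-antibody dot blot and infrared imaging. Buffer was Tris pH 7.4, NP40, MgCl2, NaCl, vanadate, DTT, NaF.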

[1] = system: Akt serine-473 phosphorylation; assay: In vitro Phospho-Akt cellular assay (pAkt S473) in HEK293T/17 cells; type: cell-based; conditions: Homo sapiens, 2 hours
Source text: Activation of mTOR signaling results in phosphorylation of several downstream targets. In cells, mTOR exists in two different protein complexes. The mTOR Complex-1 (mTORC1) phosphorylates and activates S6 Kinase 1 (S6K1) and S6 Kinase 2 (S6K2) (also known as p70S6K) which then phosphorylate S6 Ribosomal Protein (S6RP) (also known as RPS6)3. S6RP is phosphorylated on serine 235, serine 236, serine 240 and serine 244 by both pS6K1 and pS6K2. The mTOR Complex-2 (mTORC2) phosphorylates AKT on serine 473 which activates the AKT signaling pathway.
The assay measures a test compound's inhibition of S6RP serine-240/244 phosphorylation and inhibition of Akt serine-473 phosphorylation in human embryonic kidney derived HEK293T/17 cells (ATCC CRL-11268).
The HEK293T/17 cell line is maintained in DMEM media (Invitrogen catalogue number 41965-039) supplemented with 10% FCS at 37° C. in a 5% CO2 humidified incubator.
Cells are seeded in 96-well plates at 40,000 cells/well (pS6RP S240/244 assay) or 80,000 cells/well (pAkt S473 assay) in 90 μl growth media (DMEM, 2% FCS). Plates are incubated for 1 hour in a humidified incubator to allow the cells to adhere. Cells are treated with 8 concentrations of test compounds or DMSO alone for controls (final DMSO concentration 0.1%) and incubated at 37° C. for 2 hours. Then 20 μl of 5× concentrated lysis buffer (750 mM NaCl, 100 mM Tris pH7.4, 5 mM ADTA, 5 mM EGTA, 5% Triton X-100) is added, plates are sealed and incubated for 15 minutes at 4° C. with gentle shaking. After cell lysis, 25 μl cell lysate is transferred to a MesoScale plate coated with an antibody to pS6RP Ser240/244 (MesoScale Discovery K150DGD-3) or an antibody to pAkt Ser 473 (MesoScale Discovery K151DGD-3). Plates have been blocked before by incubation with 150 μl MesoScale Discovery Blocking Solution-A for 1 hour at room temperature followed by washing with 150 μl 1× Tris wash buffer per well. After the transfer of the cell lysate to the MSD plate, the pS6RP (or pAkt) protein is captured on the coated antibody by incubation at room temperature for 1 hour with gentle shaking. After the capture step the plate is washed three times with 150 μl of 1× Tris wash buffer per well. Then 25 μl detection antibody conjugated with a Sulfo-Tag is added and incubated for 1 hour at room temperature with gentle shaking. Subsequently the antibody solution is removed and the plate is washed 3 times with 150 μl×Tris wash buffer per well and 150 μl Read buffer is added. The plates are analysed on a MSD 2400 Plate Reader (MesoScale Discovery). Data analysis is performed using nonlinear regression for a sigmoidal dose-response with a variable slope.

[2] = kinobeads assay, Table 4, read-out: Inhibition values (IC50) PI3Kd
[3] = kinobeads assay, Table 6, read-out: Inhibition values (IC50) PI3Kd
[4] = Further Kinobeads Data, read-out: PI3Kd

T1 sequence (O00329 whole entry): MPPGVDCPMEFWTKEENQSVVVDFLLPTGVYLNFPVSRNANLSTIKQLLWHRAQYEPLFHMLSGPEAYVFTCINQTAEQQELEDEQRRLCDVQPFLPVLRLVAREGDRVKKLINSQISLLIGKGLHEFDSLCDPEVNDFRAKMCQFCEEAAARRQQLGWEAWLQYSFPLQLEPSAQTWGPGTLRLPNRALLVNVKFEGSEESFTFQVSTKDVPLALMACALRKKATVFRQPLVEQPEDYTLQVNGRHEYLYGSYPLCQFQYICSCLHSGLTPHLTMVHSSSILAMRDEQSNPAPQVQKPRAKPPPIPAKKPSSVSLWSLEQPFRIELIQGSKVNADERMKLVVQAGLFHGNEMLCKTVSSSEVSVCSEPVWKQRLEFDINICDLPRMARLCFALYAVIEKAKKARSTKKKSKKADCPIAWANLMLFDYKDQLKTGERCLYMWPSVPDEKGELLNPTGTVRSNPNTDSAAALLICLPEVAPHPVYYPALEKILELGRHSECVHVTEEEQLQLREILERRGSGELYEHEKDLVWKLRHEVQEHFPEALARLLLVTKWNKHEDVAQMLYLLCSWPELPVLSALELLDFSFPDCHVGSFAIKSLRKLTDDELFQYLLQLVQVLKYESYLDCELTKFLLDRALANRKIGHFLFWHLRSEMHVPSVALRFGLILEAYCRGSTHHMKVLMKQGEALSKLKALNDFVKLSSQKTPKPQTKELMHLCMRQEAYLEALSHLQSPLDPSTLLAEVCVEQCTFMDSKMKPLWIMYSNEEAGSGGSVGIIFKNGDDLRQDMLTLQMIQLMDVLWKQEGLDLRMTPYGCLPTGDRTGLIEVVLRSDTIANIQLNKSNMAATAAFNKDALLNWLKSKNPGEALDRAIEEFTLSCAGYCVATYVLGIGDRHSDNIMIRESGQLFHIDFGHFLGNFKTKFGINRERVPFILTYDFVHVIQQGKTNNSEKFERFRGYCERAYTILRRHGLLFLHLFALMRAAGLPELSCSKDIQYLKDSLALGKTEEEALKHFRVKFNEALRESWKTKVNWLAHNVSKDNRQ
T1 sequence (P27986 whole entry partner): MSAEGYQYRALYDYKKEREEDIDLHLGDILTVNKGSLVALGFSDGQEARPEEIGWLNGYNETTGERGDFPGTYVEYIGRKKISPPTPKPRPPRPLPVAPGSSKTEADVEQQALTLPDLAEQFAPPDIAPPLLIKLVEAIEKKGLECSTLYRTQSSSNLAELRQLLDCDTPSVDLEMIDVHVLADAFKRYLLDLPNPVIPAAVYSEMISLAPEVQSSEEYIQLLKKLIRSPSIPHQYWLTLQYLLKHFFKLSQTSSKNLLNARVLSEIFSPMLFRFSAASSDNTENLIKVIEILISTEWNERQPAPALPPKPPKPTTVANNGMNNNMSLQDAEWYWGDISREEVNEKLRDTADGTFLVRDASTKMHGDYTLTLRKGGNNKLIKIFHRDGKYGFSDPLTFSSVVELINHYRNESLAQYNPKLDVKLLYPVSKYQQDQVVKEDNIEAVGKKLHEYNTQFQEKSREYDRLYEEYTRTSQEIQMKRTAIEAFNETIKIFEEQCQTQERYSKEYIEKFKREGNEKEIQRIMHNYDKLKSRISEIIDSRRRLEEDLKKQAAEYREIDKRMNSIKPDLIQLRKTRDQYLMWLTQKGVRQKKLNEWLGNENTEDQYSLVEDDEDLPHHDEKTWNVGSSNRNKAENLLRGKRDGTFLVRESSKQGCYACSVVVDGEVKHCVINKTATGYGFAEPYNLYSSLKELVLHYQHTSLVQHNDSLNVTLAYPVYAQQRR

Structure (SMILES)	IC50 (PI3K delta (PI3 Kd); [2]) [µM]	IC50 (PI3K delta (PI3 Kd); [3]) [µM]	IC50 [1] [nM]	IC50 (PI3K delta (PI3 Kd); [4]) [µM]
CCNC(=O)Nc1ccc(-c2nc3c(c(N4CCOC[C@@H]4C)n2)CCN(C(=O)C(C)C)C3)cc1 [Example 57, (S)-1-ethyl-3-(4-(7-isobutyryl-4-(3-methylmorpholino)-5,6,7,8-tetrahydropyrido[3,4-d]pyrimidin-2-yl)phenyl)urea]	> 10	> 10	14	–
CCNC(=O)Nc1ccc(-c2nc3c(c(N4CCOCC4)n2)CN(C(=O)OC)C3)c(F)c1 [Example 162, methyl 2-(4-(3-ethylureido)-2-fluorophenyl)-4-morpholino-5H-pyrrolo[3,4-d]pyrimidine-6(7H)-carboxylate]	–	–	85	1 to 10
COC(=O)N1Cc2nc(-c3ccc(NC(=O)NC4CC4)cc3F)nc(N3CCOC[C@@H]3C)c2C1 [Example 146, (S)-methyl 2-(4-(3-cyclopropylureido)-2-fluorophenyl)-4-(3-methylmorpholino)-5H-pyrrolo[3,4-d]pyrimidine-6(7H)-carboxylate]	–	–	41	> 10
CCOC(=O)N1Cc2nc(-c3ccc(NC(=O)NC4CC4)cc3F)nc(N3CCOC[C@H]3C)c2C1 [Example 179, (R)-ethyl 2-(4-(3-cyclopropylureido)-2-fluorophenyl)-4-(3-methylmorpholino)-5H-pyrrolo[3,4-d]pyrimidine-6(7H)-carboxylate]	–	–	31	> 10
C[C@H]1COCCN1c1nc(-c2ccc(NC(=O)NC3CC3)cc2)nc2c1CCN(CC1CC1)C2 [Example 40, (S)-1-cyclopropyl-3-(4-(7-(cyclopropylmethyl)-4-(3-methylmorpholino)-5,6,7,8-tetrahydropyrido[3,4-d]pyrimidin-2-yl)phenyl)urea]	> 10	> 10	43	–
CCNC(=O)Nc1ccc(-c2nc3c(c(N4CCOC[C@@H]4C)n2)CCN(CC2CC2)C3)cc1 [Example 37, (S)-1-(4-(7-(cyclopropylmethyl)-4-(3-methylmorpholino)-5,6,7,8-tetrahydropyrido[3,4-d]pyrimidin-2-yl)phenyl)-3-ethylurea]	> 10	> 10	45	–
CCOC(=O)N1Cc2nc(-c3ccc(NC(=O)NC4CC4)cc3)nc(N3CCOC[C@@H]3C)c2C1 [Example 34, (S)-ethyl 2-(4-(3-cyclopropylureido)phenyl)-4-(3-methylmorpholino)-5H-pyrrolo[3,4-d]pyrimidine-6(7H)-carboxylate]	> 10	> 10	21	–
CCNC(=O)Nc1ccc(-c2nc3c(c(N4CCOC[C@@H]4C)n2)CCN(C(=O)N(C)C)C3)c(F)c1 [Example 176, (S)-2-(4-(3-ethylureido)-2-fluorophenyl)-N,N-dimethyl-4-(3-methylmorpholino)-5,6-dihydropyrido[3,4-d]pyrimidine-7(8H)-carboxamide]	–	–	54	1 to 10
CN1Cc2nc(-c3ccc(NC(=O)NC4CC4)cc3F)nc(N3CCOCC3)c2C1 [Example 159, 1-(Cyclopropyl)-3-(3-fluoro-4-(6-methyl-4-morpholino-6,7-dihydro-5H-pyrrolo[3,4-d]pyrimidin-2-yl)phenyl)urea]	–	–	314	> 10
CCOC(=O)N1Cc2nc(-c3ccc(NC(=O)NC4CC4)cc3F)nc(N3CCOCC3)c2C1 [Example 156, Ethyl 2-(4-(3-cyclopropylureido)-2-fluorophenyl)-4-morpholino-5H-pyrrolo[3,4-d]pyrimidine-6(7H)-carboxylate]	–	–	76	> 10
C[C@H]1COCCN1c1nc(-c2ccc(NC(=O)NC3CC3)cc2F)nc2c1CCN(C(=O)N(C)C)C2 [Example 165, (S)-2-(4-(3-cyclopropylureido)-2-fluorophenyl)-N,N-dimethyl-4-(3-methylmorpholino)-5,6-dihydropyrido[3,4-d]pyrimidine-7(8H)-carboxamide]	–	–	37	> 10
CCOC(=O)N1Cc2nc(-c3ccc(NC(=O)NCCF)cc3F)nc(N3CCOCC3)c2C1 [Example 170, ethyl 2-(2-fluoro-4-(3-(2-fluoroethyl)ureido)phenyl)-4-morpholino-5H-pyrrolo[3,4-d]pyrimidine-6(7H)-carboxylate]	–	–	54	1 to 10
C[C@H]1COCCN1c1nc(-c2ccc(NC(=O)NC3CC3)cc2F)nc2c1CN(C(=O)N(C)C)C2 [Example 178, (S)-2-(4-(3-cyclopropylureido)-2-fluorophenyl)-N,N-dimethyl-4-(3-methylmorpholino)-5H-pyrrolo[3,4-d]pyrimidine-6(7H)-carboxamide]	–	–	52	> 10
CC(C)N1CCc2c(nc(-c3ccc(NC(=O)NC4CC4)cc3)nc2N2CCOC[C@@H]2C)C1 [Example 43, (S)-1-cyclopropyl-3-(4-(7-isopropyl-4-(3-methylmorpholino)-5,6,7,8-tetrahydropyrido[3,4-d]pyrimidin-2-yl)phenyl)urea]	> 10	> 10	35	–
CCNC(=O)Nc1ccc(-c2nc3c(c(N4CCOC[C@@H]4C)n2)CCN(CC)C3)cc1 [Example 27, (S)-1-ethyl-3-(4-(7-ethyl-4-(3-methylmorpholino)-5,6,7,8-tetrahydropyrido[3,4-d]pyrimidin-2-yl)phenyl)urea]	> 10	> 10	16	–
CC(C)N1Cc2nc(-c3ccc(NC(=O)NC4CC4)cc3F)nc(N3CCOC[C@@H]3C)c2C1 [Example 172, (S)-1-cyclopropyl-3-(3-fluoro-4-(6-isopropyl-4-(3-methylmorpholino)-6,7-dihydro-5H-pyrrolo[3,4-d]pyrimidin-2-yl)phenyl)urea]	–	–	101	1 to 10
CCNC(=O)Nc1ccc(-c2nc3c(c(N4CCOCC4)n2)CN(C(=O)OCC)C3)c(F)c1 [Example 151, Ethyl 2-(4-(3-ethylureido)-2-fluorophenyl)-4-morpholino-5H-pyrrolo[3,4-d]pyrimidine-6(7H)-carboxylate]	–	–	107	> 10
CCNC(=O)Nc1ccc(-c2nc3c(c(N4CCOC[C@@H]4C)n2)CN(C(=O)OC)C3)c(F)c1 [Example 152, (S)-methyl 2-(4-(3-ethylureido)-2-fluorophenyl)-4-(3-methylmorpholino)-5H-pyrrolo[3,4-d]pyrimidine-6-(7H)-carboxylate]	–	–	49	1 to 10
COC(=O)N1Cc2nc(-c3ccc(NC(=O)NC4CC4)cc3F)nc(N3CCOCC3)c2C1 [Example 173, Methyl 2-(4-(3-cyclopropylureido)-2-fluorophenyl)-4-morpholino-5H-pyrrolo[3,4-d]pyrimidine-6(7H)-carboxylate]	–	–	49	> 10
CCNC(=O)Nc1ccc(-c2nc3c(c(N4CCOC[C@@H]4C)n2)CCN(C)C3)cc1 [Example 35, (S)-1-ethyl-3-(4-(7-methyl-4-(3-methylmorpholino)-5,6,7,8-tetrahydropyrido[3,4-d]pyrimidin-2-yl)phenyl)urea]	> 10	> 10	14	–
CCNC(=O)Nc1ccc(-c2nc3c(c(N4CCOC[C@@H]4C)n2)CN(C)C3)cc1 [Example 26, (S)-1-ethyl-3-(4-(6-methyl-4-(3-methylmorpholino)-6,7-dihydro-5H-pyrrolo[3,4-d]pyrimidin-2-yl)phenyl)urea]	> 10	> 10	68	–
CCNC(=O)N1Cc2nc(-c3ccc(NC(=O)NC4CC4)cc3)nc(N3CCOC[C@@H]3C)c2C1 [Example 33, (S)-2-(4-(3-cyclopropylureido)phenyl)-N-ethyl-4-(3-methylmorpholino)-5H-pyrrolo[3,4-d]pyrimidine-6(7H)-carboxamide]	> 10	> 10	160	–
